± gives the expanded uncertainty stated by the source.
Experiments:
[1] = Crystal; DTA
[2] = Molar enthalpy of transition or fusion; details: Crystal; DSC

**Q.** Which results are given for `COc1cc(O)c2c(c1)oc(=O)c1c3cc(O)c(O)cc3oc21` [wedelolactone]?
**A.** Normal melting temperature [1]: 316.37 ± 24 °C; Molar enthalpy of transition or fusion [2]: 10.9 ± 0.478 kcal/mol

From the NIST ThermoML archive (doi:10.1016/j.fluid.2014.10.031)
